Ten compounds from ChEMBL document CHEMBL1201862, “PubChem BioAssay data set” (2004) can be followed below.

Among the test systems are ACHN; Malme-3M; RXF 393; RPMI-8226; SF-295; M14; A549; T47D; HCT-15; TK-10; SR; A498; HT-29; EKVX; NCI-H23; SK-OV-3; CAKI-1; LOX IMVI; SN12C; SK-MEL-2.
Experiment in all cases: inhibition of tumour cell growth, NCI panel, 48 h

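Where inhibition never reached the appropriate level, the endpoint shown equals the highest concentration tested. Otherwise, values were interpolated linearly from a five-concentration, 48-hour dose response in 96-well plates. GI50 marks 50% less growth.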 The source made the active and inactive calls. Rule as the data show it: active = GI50 up to about 1.1 µM and inactive = higher.

As for `CN1CCCCC(C#N)(c2ccccc2)CC1` (stereo unspecified), the GI50 in the test with ACHN, with Malme-3M, in the test on RXF 393, with RPMI-8226, with SF-295 and with M14 was > 100 µM (inactive) in each case. Also, the GI50 with A549 is > 100 µM (inactive); with T47D it was > 100 µM (inactive); in the test on HCT-15 it was greater than 100 µM; in the test on TK-10 it was > 100 µM (inactive); with SR, > 100 µM (inactive); with A498 it was > 100 µM (inactive). Also, the GI50 with HT-29, in the test on EKVX, in the test on NCI-H23, with SK-OV-3 and in the test on CAKI-1 was > 100 µM (inactive) throughout.
For `CC(=O)c1cc2c(Br)cccc2oc1=O`, the GI50 in the test with ACHN, with Malme-3M, in the test with RXF 393, in the test with RPMI-8226, with SF-295 and in the test with M14 was > 100 µM (inactive) throughout. Further, the GI50 in the test with A549 is > 100 µM (inactive); with T47D, > 100 µM (inactive); in the test with HCT-15, greater than 100 µM; with TK-10, > 100 µM (inactive); with SR, 46.8 µM (inactive); in the test on A498, > 100 µM (inactive). The GI50 with LOX IMVI, in the test on HT-29, in the test with SN12C, in the test on EKVX, in the test on NCI-H23 and in the test with SK-MEL-2 was > 100 µM (inactive) each time. Moreover, the GI50 in the test with CAKI-1 was > 100 µM (inactive).
Turning to `C=C(C)[C@@]1(O[Si](C)(C)C)CCCC[C@@H]1CC(Sc1ccccc1)Sc1ccccc1`, the GI50 in the test with ACHN was 15.4 µM (inactive); in the test with Malme-3M, 12.1 µM (inactive); in the test with RXF 393 it was 10.8 µM (inactive); with RPMI-8226, 16.9 µM (inactive); in the test with SF-295 it was 12.4 µM (inactive); with M14, 14.9 µM (inactive). Also, the GI50 in the test with A549 is 10.1 µM (inactive); in the test on T47D, 4.26 µM (inactive); with HCT-15, 12.3 µM; in the test with TK-10 it was 15.4 µM (inactive); with SR, 11.1 µM (inactive); in the test with A498, 19.9 µM (inactive). Further, the GI50 is 17.9 µM (inactive) with LOX IMVI; 19.7 µM (inactive) in the test with HT-29; 17.6 µM (inactive) with EKVX; 13.4 µM (inactive) in the test on NCI-H23; 15 µM (inactive) with SK-MEL-2; 20 µM (inactive) with SK-OV-3. The GI50 in the test on CAKI-1 is 12.9 µM (inactive).
For `O=C1C=CC(=O)c2cc(Sc3ccccc3)c(=O)ccc21`, the GI50 in the test with ACHN is 9.89 µM (inactive); in the test on Malme-3M it was 12.7 µM (inactive); in the test on RXF 393, 12.3 µM (inactive); in the test on RPMI-8226 it was 4.46 µM (inactive); with SF-295, 8.36 µM (inactive); in the test on M14 it was 17.8 µM (inactive). The GI50 in the test with A549 was 20.1 µM (inactive); with T47D, 3.41 µM (inactive); in the test on HCT-15 it was 13.5 µM; in the test with TK-10 it was 17.1 µM (inactive); in the test with SR it was 1.58 µM (inactive); in the test with A498, 16.2 µM (inactive). Further, the GI50 is 13.1 µM (inactive) in the test on LOX IMVI; 20.6 µM (inactive) in the test on HT-29; 16.2 µM (inactive) in the test on SN12C; 18.3 µM (inactive) in the test with EKVX; 19.2 µM (inactive) in the test on NCI-H23; 13.6 µM (inactive) in the test with SK-MEL-2. The GI50 in the test with SK-OV-3 is 26 µM (inactive).
Regarding `COC(=O)NN=C(c1ccc(Cl)cc1)c1ccc(Cl)cc1`, the GI50 is > 100 µM (inactive) in the test with Malme-3M; 22.4 µM (inactive) in the test on RXF 393; > 100 µM (inactive) in the test with RPMI-8226; > 100 µM (inactive) in the test with M14; 71.1 µM (inactive) in the test on A549; > 100 µM (inactive) in the test on T47D. For the same compound, the GI50 is greater than 100 µM in the test with HCT-15; 54.2 µM (inactive) in the test on TK-10; 94.2 µM (inactive) with SR; 17.9 µM (inactive) in the test on A498; > 100 µM (inactive) in the test on LOX IMVI; 58.6 µM (inactive) in the test on HT-29. In addition, the GI50 with SN12C, in the test on EKVX, with NCI-H23, in the test on SK-MEL-2, with SK-OV-3 and with CAKI-1 was > 100 µM (inactive) each time.
Turning to `COC(=O)[C@H](CNC(=O)/C=C/c1ccc(OC(C)=O)c(OC(C)=O)c1)NC(=O)/C=C/c1ccc(OC(C)=O)c(OC(C)=O)c1`, the GI50 in the test on ACHN was > 100 µM (inactive); in the test with Malme-3M, 16.4 µM (inactive); in the test on RXF 393 it was > 100 µM (inactive); in the test with RPMI-8226, > 100 µM (inactive); in the test on M14, > 100 µM (inactive); in the test on A549, > 100 µM (inactive). Further, the GI50 in the test with T47D is 44.4 µM (inactive); with HCT-15, 69.7 µM; with SR, > 100 µM (inactive); in the test with A498 it was > 100 µM (inactive); in the test on LOX IMVI, > 100 µM (inactive); in the test on HT-29, > 100 µM (inactive). The GI50 in the test on SN12C, in the test on EKVX, in the test with NCI-H23, in the test with SK-MEL-2, in the test with SK-OV-3 and with CAKI-1 was > 100 µM (inactive) throughout.
For the compound `CC(=O)O[C@H]1C(=O)[C@@]2(C)[C@H]([C@H](OC(=O)c3ccc(F)cc3)[C@]3(O)C[C@H](OC(=O)[C@H](O)[C@@H](NC(=O)c4ccccc4)c4ccccc4)C(C)=C1C3(C)C)[C@]1(OC(C)=O)CO[C@@H]1C[C@@H]2O`, the GI50 with ACHN was 0.802 µM (active); in the test on Malme-3M, 0.0127 µM (active); in the test with RXF 393 it was 0.0813 µM (active); in the test with RPMI-8226 it was 0.00592 µM (active); in the test with SF-295, 0.168 µM (active); with M14 it was 0.0559 µM (active). The GI50 in the test with A549 was 0.082 µM (active); in the test on T47D it was 0.00931 µM (active); in the test on HCT-15, 1.47 µM; in the test on TK-10, 0.416 µM (active); in the test with SR, 0.0108 µM (active); in the test with A498 it was 0.202 µM (active). Besides, the GI50 in the test on LOX IMVI was 0.00828 µM (active); with HT-29, 0.00678 µM (active); with SN12C it was 0.528 µM (active); in the test on EKVX, 2 µM (inactive); in the test on NCI-H23, 0.124 µM (active); in the test on SK-MEL-2, 0.0597 µM (active). Further, the GI50 with SK-OV-3 was 0.0159 µM (active); in the test on CAKI-1, 3.82 µM (inactive).
On to `COc1cc(C2c3cc4c(cc3OC3(OC)COC(=O)C23)OCO4)cc(OC)c1OC(C)=O` (stereo unspecified), for which the GI50 was 1.32 µM (inactive) with ACHN; > 100 µM (inactive) in the test on Malme-3M; 0.499 µM (active) with RXF 393; 1.81 µM (inactive) in the test on RPMI-8226; 0.321 µM (active) in the test on SF-295; 1.66 µM (inactive) with M14. Also, the GI50 in the test with A549 is 1.54 µM (inactive); with T47D it was > 100 µM (inactive); in the test on HCT-15, 0.798 µM; in the test on TK-10, 19.3 µM (inactive); with SR, 2.53 µM (inactive); in the test on A498 it was 3.27 µM (inactive). Further, the GI50 in the test on LOX IMVI is 0.656 µM (active); in the test on HT-29 it was 2.47 µM (inactive); in the test with SN12C, 3.93 µM (inactive); in the test with EKVX, > 35.8 µM (inactive); with NCI-H23 it was 3.27 µM (inactive); with SK-MEL-2 it was 1.84 µM (inactive). For the same compound, the GI50 in the test with SK-OV-3 is 1.66 µM (inactive).
`N[C@@H]1CCN(c2c(F)cc3c(=O)c(C(=O)O)cn4c3c2Oc2cc3c(ccc5ccccc53)cc2-4)C1`: the GI50 in the test on ACHN is 1.54 µM (inactive); in the test on Malme-3M it was 5.27 µM (inactive); with RXF 393, 1.64 µM (inactive); in the test on RPMI-8226, 4.3 µM (inactive); in the test with SF-295, 3.68 µM (inactive); in the test with M14, 8.79 µM (inactive). Further, the GI50 with A549 was 3.29 µM (inactive); with T47D, 4.56 µM (inactive); in the test with HCT-15, 1.69 µM; in the test on TK-10, 1.45 µM (inactive); with SR, 0.659 µM (active); in the test on A498 it was 4.83 µM (inactive). In addition, the GI50 is 2.34 µM (inactive) in the test on LOX IMVI; 0.585 µM (active) in the test with HT-29; 2.08 µM (inactive) in the test with SN12C; 3.06 µM (inactive) with NCI-H23; 5.18 µM (inactive) with SK-MEL-2; 6.27 µM (inactive) with CAKI-1.
`O=[N+]([O-])c1ccc(Oc2c(Cl)cc(S(=O)(=O)N/C(=N\O)Nc3ccc(Cl)cc3)cc2Cl)c(Cl)c1`: the GI50 in the test with ACHN was 15 µM (inactive); with Malme-3M it was 14.6 µM (inactive); in the test on RXF 393, 13.2 µM (inactive); with RPMI-8226 it was 15.2 µM (inactive); in the test with SF-295, 17.3 µM (inactive); with M14 it was 16.5 µM (inactive). Moreover, the GI50 with A549 is 17.1 µM (inactive); with T47D it was 13.1 µM (inactive); in the test on HCT-15 it was 16.3 µM; in the test on TK-10, 16 µM (inactive); with SR it was 10.7 µM (inactive); with A498, 12.7 µM (inactive). The GI50 is 17.1 µM (inactive) with LOX IMVI; 16.9 µM (inactive) in the test on HT-29; 14.3 µM (inactive) in the test with SN12C; 14.8 µM (inactive) with EKVX; 17.7 µM (inactive) in the test with NCI-H23; 17 µM (inactive) in the test on SK-MEL-2. Further, the GI50 in the test with CAKI-1 was 14.8 µM (inactive).
